Results on two compounds are retold here after patent US4902505A, “Chimeric peptides for neuropeptide delivery through the blood-brain barrier” (Alkermes, priority 1988, dated 1990).

Data set [1] relates to isolated bovine brain microvessels. In words: Radioreceptor assay (uptake) using isolated bovine brain microvessels. Particulars: up to 60 minutes incubation at room temperature; FIG. 1. The format is cell-based. As for the experimental part:
Somatostatin was obtained from Peninsula Laboratories and tritiated by reductive methylation using ^3 H-sodium borohydride. […] The two compounds were coupled together using SPDP as described in Example 1. Bovine brain microvessels were isolated as described in Pardridge, et al., "Rapid Sequestration And Degradation Of Somatostatin Analogues By Isolated Brain Microvessels", (Journal of Neurochemistry, Vol. 44, No. 4, 1985, pp. 1178-1184).
^3 H-somatostatin was added to one set of microvessels for up to 60 minutes incubation at room temperature. In another set of incubations, the ^3 H-somatostatin-^125 I-insulin chimera was also added. […] The uptake of the free somatostatin likely represents nonspecific binding as described in the article mentioned above (Journal of Neurochemistry, Vol. 44, No. 4, 1985).
Previous studies have shown that the receptor-mediated endocytosis of peptides in the isolated brain microvessels is a reliable index of the in vivo blood-brain barrier receptor transport activity of peptides in vivo (see my previously-mentioned article in Endocrine Reviews, Vol. 7, No. 3, Aug. 1986).

The test system of another data set is blood-brain barrier. To be noted: general statement, no test described; cited from earlier work.

As for `C[C@H](N)C(=O)NCC(=O)N[C@H]1CSSC[C@@H](C(=O)O)NC(=O)[C@H](CO)NC(=O)[C@H]([C@@H](C)O)NC(=O)[C@H](Cc2ccccc2)NC(=O)[C@H]([C@@H](C)O)NC(=O)[C@H](CCCCN)NC(=O)[C@H](Cc2c[nH]c3ccccc23)NC(=O)[C@H](Cc2ccccc2)NC(=O)[C@H](Cc2ccccc2)NC(=O)[C@H](CC(N)=O)NC(=O)[C@H](CCCCN)NC1=O` [somatostatin], the “change of uptake with time” value in data set [1] is “no increase in time”. Besides, in the data set with blood-brain barrier, the “transport through the blood-brain barrier” value is “not transported”.

Take “cationized albumin: bovine serum albumin covalently coupled with hexamethylene-diamine”: in the data set with blood-brain barrier, the “transport through the blood-brain barrier” value is given as “enters the brain rapidly”.
